In patent US5919761A, “Peptides for heparin and low molecular weight heparin anticoagulation reversal” (The Board of Regents of the University of Michigan, priority 1995, dated 1999):

What was measured:
[1] = Hemodynamic studies and total toxicity score after standard heparin reversal, canine study; settings: dogs
Experimental: As used hereinafter, the peptides will be identified by their total cationic charge value, e.g., [+8], [+16], etc.
Hemodynamic studies were conducted by measuring mean arterial pressure (MAP), heart rate (HR), and maximum percent changes in cardiac output (CO) and systemic oxygen consumption (VO2).
Total toxicity scores (TTS) were developed that reflected maximum declines in each of four parameters (MAP, CO, VO2 and HR) over the first 5 minutes after reversal, the latter being the time of expected greatest adverse hemodynamic effect. The maximum changes occurring in an individual dog over the first 5 minutes were divided by the standard deviation derived from the entire group of tested animals and the four scores were added, resulting in a TTS for each individual dog. The TTS values for each dog were then summed to obtain an average TTS and SD for each peptide studied.

[2] = Platelet count, leukocyte count and bleeding time after LMWH reversal at different rates, canine study; assay type: in vivo, dogs; settings: dogs, Logiparin; administered over 10 sec
Experimental: The anticoagulation-reversing agents were administered rapidly over 10 seconds to maximize hemodynamic effects or more slowly over a 3 minute interval. Changes in LMWH anticoagulation occurring from metabolism alone were determined in a separate group of dogs not given any reversal agent.

[3] = Platelet and white cell counts after standard heparin reversal, canine study; assay type: in vivo; settings: dogs, 3 minutes post-reversal, resolved by about 30 minutes
Experimental: (§1) Anticoagulation reversal was assessed by a number of standard coagulation tests performed upon samples of venous blood: activated clotting time (ACT), prothrombin time (PT), activated partial thromboplastin time (aPTT), thrombin clotting time (TCT), heparin concentration by assay for FXa inhibitory activity (FXa), white cell count (WBC), and platelet counts (PLT). Measurements were made 3 minutes prior to heparin reversal (baseline) and 3 minutes and 30 minutes post-administration of the heparin reversal agent. The "Heparin" row sets forth the observed reversal as a consequence of expected heparin metabolism or degradation alone.

[4] = test system: standard, unfractionated heparin; assay: Percent reversal of standard heparin anticoagulation by variant peptides and protamine, in vivo canine study, coagulation tests; design: species or system dogs; settings: for Percent reversal of heparin anticoagulation, ACT: heparin 150 IU/kg IV, agent 1.5 mg/kg IV over 10 seconds
Experimental: Data are expressed as a mean ±1 SD. Statistical analysis using linear regression for determination of correlation coefficients, and analysis of variance (ANOVA) or unpaired two-way Student's t-test; p<0.05 was accepted as statistically significant.
as §1

Substance: PK4 S3 KPVK6 PKVSK6 G2 K4 [[+21]]
- ΔHR [1]: -21
- ΔMAP ([1]; average maximum decline in first five minutes after peptide administration): -35
- average total toxicity score (TTS±SD) ([1]; first 5 minutes after reversal, more negative = more toxic): -6.9±3.8
- ΔCO ([1]; maximum percent change): -44%
- ΔVO2 ([1]; maximum percent change): -38%
- Maximal thrombocytopenia [2]: -43%
- platelet counts [3]: thrombocytopenia
- in vivo heparin reversal (summary) ([4]; dogs, standard heparin): nearly complete reversal
- Percent reversal of heparin anticoagulation, ACT ([4]; dogs, 3 min post-administration): 81%
- Percent reversal of heparin anticoagulation, ACT ([4]; dogs, 30 min): 85%
- Percent reversal of heparin anticoagulation, APTT ([4]; same study, 3 min): 88%
- Percent reversal of heparin anticoagulation, FNa ([4]; same study, 3 min): 59%
- Percent reversal of heparin anticoagulation, FXa ([4]; same study, 3 min): 55%
- Percent reversal of heparin anticoagulation, PT ([4]; same study, 3 min): 97%
- Percent reversal of heparin anticoagulation, TCT ([4]; same study, 3 min): 91%
- Percent reversal of heparin anticoagulation, APTT ([4]; same study, 30 min): 85%
- Percent reversal of heparin anticoagulation, FXa ([4]; same study, 30 min): 49%
- Percent reversal of heparin anticoagulation, PT ([4]; same study, 30 min): 93%
- Percent reversal of heparin anticoagulation, TCT ([4]; same study, 30 min): 79%
